Among the data in PubChem BioAssay (NCI) are GI50 and TGI values, retold here.

Test systems include PC-3 prostate; SN12C renal; NCI-H226 lung; 786-0 renal; IGROV1 ovarian; HCT-116 colon; HCT-15 colon; MDA-MB-435; HOP-92 NSCLC; OVCAR-3 ovarian.
Holding throughout (assay): inhibition of tumour cell growth, NCI panel, 48 h

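These data come from cells grown in 96-well plates and exposed to compound for 48 hours at five concentrations. GI50 is the concentration that inhibits growth by half. TGI: total growth inhibition.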

For `C[C@]12CCC3c4ccc(O)cc4CCC3C1Cc1ccc(O)cc12` (stereo not given in full), the GI50 was 7.25 µM in the assay with PC-3 prostate; 11.8 µM with SN12C renal; 19 µM in the assay with NCI-H226 lung; 5.22 µM in the assay with 786-0 renal; 9.72 µM in the assay on IGROV1 ovarian; 3.52 µM in the assay with HCT-116 colon. Moreover, the GI50 was 4.51 µM with HCT-15 colon, 2.44 µM in the assay on MDA-MB-435, 12.7 µM with HOP-92 NSCLC and 5.71 µM in the assay on OVCAR-3 ovarian. Moreover, the TGI in the assay with PC-3 prostate amounted to 22.4 µM; with SN12C renal it was 25.8 µM; in the assay on NCI-H226 lung, 36.6 µM; with 786-0 renal, 18.1 µM; in the assay on IGROV1 ovarian, 26.1 µM; with HCT-116 colon, 13.2 µM. The TGI was found to be 19 µM in the assay with HCT-15 colon, 11.1 µM in the assay on MDA-MB-435, 27.9 µM in the assay with HOP-92 NSCLC and 26.5 µM in the assay on OVCAR-3 ovarian.

With `CCCCCCCCCCCC[n+]1ccccc1`, the GI50 in the assay with PC-3 prostate is 0.374 µM; in the assay on SN12C renal, 1.63 µM; with NCI-H226 lung, 1.44 µM; with 786-0 renal it was 1.48 µM; in the assay with IGROV1 ovarian it was 1 µM; in the assay with HCT-116 colon, 1.92 µM. Besides, the GI50 in the assay with HCT-15 colon was 2.61 µM; in the assay on MDA-MB-435, 1.18 µM; in the assay with HOP-92 NSCLC it was 0.958 µM; in the assay with OVCAR-3 ovarian it was 0.835 µM. Besides, the TGI in the assay on PC-3 prostate is 2.76 µM; in the assay with SN12C renal, 4.11 µM; with NCI-H226 lung it was 8.83 µM; with 786-0 renal it was 3.42 µM; in the assay with IGROV1 ovarian it was 2.85 µM; in the assay on HCT-116 colon, 10.7 µM. Moreover, the TGI with HCT-15 colon stood at 16.4 µM; in the assay on MDA-MB-435 it was 3.22 µM; with HOP-92 NSCLC it was 3.1 µM; in the assay on OVCAR-3 ovarian, 2.88 µM.

For the compound `CC1(O)CC2(O)C=CC3=C(C(=O)c4cccc(O)c4C3=O)C2(O)C(=O)C1O` (stereo not given), the TGI was 17.1 µM with PC-3 prostate; 6.66 µM in the assay with SN12C renal; 17.6 µM in the assay on NCI-H226 lung; 3.84 µM with 786-0 renal; 10.6 µM in the assay on IGROV1 ovarian; 2.05 µM with HCT-116 colon. Further, the TGI in the assay on HCT-15 colon stood at 2.98 µM; in the assay with MDA-MB-435 it was 3.32 µM; in the assay on HOP-92 NSCLC, 2.19 µM; with OVCAR-3 ovarian, 5.19 µM.

Take `CN1CCN(Cc2ccc(NC(=O)c3nc4ccc5[nH]ncc5c4c4c3CCC4)cc2C(F)(F)F)CC1`: the GI50 is 0.926 µM in the assay on PC-3 prostate; 0.873 µM with SN12C renal; 2.23 µM in the assay on NCI-H226 lung; 0.859 µM in the assay on 786-0 renal; 0.907 µM in the assay with IGROV1 ovarian; 0.856 µM in the assay on HCT-116 colon. Also, the GI50 is 0.87 µM in the assay with HCT-15 colon, 0.926 µM in the assay with MDA-MB-435, 3.53 µM with HOP-92 NSCLC and 0.904 µM in the assay with OVCAR-3 ovarian. Further, the TGI in the assay with PC-3 prostate was determined as 2.12 µM; in the assay with SN12C renal, 1.64 µM; in the assay with NCI-H226 lung, 11.3 µM; with 786-0 renal it was 1.56 µM; with IGROV1 ovarian, 1.7 µM; in the assay on HCT-116 colon, 1.61 µM. In addition, the TGI in the assay with HCT-15 colon stood at 1.75 µM; in the assay with MDA-MB-435 it was 1.71 µM; in the assay with HOP-92 NSCLC, 10.6 µM; in the assay on OVCAR-3 ovarian, 1.68 µM.

Regarding `NC(CSc1nc2ccccn2c1[N+](=O)[O-])C(=O)O` (stereo not given), the TGI with PC-3 prostate, with SN12C renal, in the assay with NCI-H226 lung, with 786-0 renal, with IGROV1 ovarian and with HCT-116 colon was more than 100 µM in each case. Further, the TGI in the assay on HCT-15 colon, in the assay with MDA-MB-435, in the assay on HOP-92 NSCLC and with OVCAR-3 ovarian was more than 100 µM throughout.

As for `Cc1ccc2c(Nc3cccc(Cl)c3F)ncc(NC(=O)c3csc4c(N)ncnc34)c2c1`, the GI50 in the assay with PC-3 prostate was more than 100 µM; in the assay on SN12C renal, more than 100 µM; with NCI-H226 lung, more than 100 µM; with 786-0 renal, more than 100 µM; in the assay with IGROV1 ovarian, 0.605 µM; in the assay with HCT-116 colon, 0.0961 µM. Besides, the GI50 with HCT-15 colon is more than 100 µM; in the assay on MDA-MB-435, 0.326 µM; in the assay on HOP-92 NSCLC, 0.136 µM; in the assay on OVCAR-3 ovarian, more than 100 µM. Moreover, the TGI in the assay with PC-3 prostate, with SN12C renal, in the assay with NCI-H226 lung, in the assay on 786-0 renal, with IGROV1 ovarian and with HCT-116 colon was more than 100 µM in each case. Besides, the TGI in the assay with HCT-15 colon is more than 100 µM; in the assay on MDA-MB-435 it was more than 100 µM; in the assay with HOP-92 NSCLC it was 1.72 µM; in the assay on OVCAR-3 ovarian, more than 100 µM.

With `O=C(O)CCCSc1nc2ccccc2s1`, the TGI with PC-3 prostate, in the assay on SN12C renal, in the assay on NCI-H226 lung, with 786-0 renal, in the assay on IGROV1 ovarian and with HCT-116 colon was more than 100 µM throughout. The TGI with HCT-15 colon, in the assay on MDA-MB-435, in the assay with HOP-92 NSCLC and in the assay with OVCAR-3 ovarian was more than 100 µM throughout.

On to `COc1cc(Cn2ccc3c2-c2oncc2CC3)cc(OC)c1`, for which the GI50 in the assay with PC-3 prostate was 11 µM; with SN12C renal, 6.99 µM; in the assay on NCI-H226 lung it was 15.5 µM; in the assay on 786-0 renal it was 6.36 µM; in the assay on IGROV1 ovarian, 7.44 µM; in the assay with HCT-116 colon it was 3.49 µM. Moreover, the GI50 in the assay with HCT-15 colon is 3.03 µM; with MDA-MB-435, 0.369 µM; in the assay with HOP-92 NSCLC, 4.25 µM; in the assay with OVCAR-3 ovarian, 2.99 µM. Further, the TGI is more than 100 µM with PC-3 prostate; more than 100 µM with SN12C renal; more than 100 µM with NCI-H226 lung; 37.1 µM in the assay with 786-0 renal; more than 100 µM in the assay on IGROV1 ovarian; 26.6 µM in the assay on HCT-116 colon. Also, the TGI in the assay with HCT-15 colon was more than 100 µM; in the assay with MDA-MB-435 it was 4.03 µM; with HOP-92 NSCLC, 47 µM; in the assay on OVCAR-3 ovarian it was 9.79 µM.

`CN(C)C(=O)c1cc2cnc(Nc3ccc(-c4csc5c(=O)cc(N6CCNCC6)oc45)cc3)nc2n1C1CCCC1`: the GI50 in the assay with PC-3 prostate was 0.677 µM; in the assay on SN12C renal, 0.557 µM; in the assay on NCI-H226 lung it was 1.61 µM; with 786-0 renal it was 0.535 µM; in the assay with IGROV1 ovarian, 0.523 µM; in the assay with HCT-116 colon it was 0.318 µM. The GI50 in the assay on HCT-15 colon was 1.84 µM; in the assay with MDA-MB-435 it was 0.94 µM; in the assay with HOP-92 NSCLC it was 0.517 µM; in the assay on OVCAR-3 ovarian, 0.871 µM. Moreover, the TGI amounted to 4.93 µM in the assay with PC-3 prostate; 16.8 µM in the assay with SN12C renal; 15.3 µM in the assay on NCI-H226 lung; 1.93 µM in the assay on 786-0 renal; 6.12 µM in the assay on IGROV1 ovarian; 1.4 µM in the assay on HCT-116 colon. Also, the TGI came out at 5.79 µM in the assay on HCT-15 colon, 6.61 µM with MDA-MB-435, 16.5 µM in the assay with HOP-92 NSCLC and 2.72 µM with OVCAR-3 ovarian.
